Legend:
Experiment in all cases: relative viability (nuclei count vs DMSO), 5 days (fraction); higher = more cells survive
Sulindac + Phenformin = compound: CC1=C(CC(=O)O)c2cc(F)ccc2/C1=C\c1ccc([S+](C)[O-])cc1 [Sulindac] + N=C(N)NC(=N)NCCc1ccccc1 [Phenformin] (partner 250 µM)
Procedure, shortened: (§1)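 Nuclei were stained with Hoechst during a one-step fixation (final 0.05% Triton X-100, 1% formaldehyde, 1 ug/ml Hoechst) carried out 5 days after dosing, then counted on 4× images. The cells, lung cancer lines in 1536-well plates, had been dosed by pin tool the day after seeding with one drug alone or a fixed anchor-drug dose plus five library-drug doses (not always all listed) in √10 steps. Relative viability is the nuclei count in treated wells divided by that in vehicle wells, and each value is the median of duplicate plates.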

[1] = compound: CN[C@@H]1C[C@H]2O[C@@](C)([C@@H]1OC)n1c3ccccc3c3c4c(c5c6ccccc6n2c5c31)C(=O)NC4 [Staurosporine] + C[C@@H](Oc1cc(-c2cnn(C3CCNCC3)c2)cnc1N)c1c(Cl)ccc(F)c1Cl [Crizotinib] (partner 1 µM)
Procedure, shortened: as §1

[2] = compound: O=c1[nH]cc(F)c(=O)[nH]1 [5-Fluorouracil] + CS(=O)(=O)CCNCc1ccc(-c2ccc3ncnc(Nc4ccc(OCc5cccc(F)c5)c(Cl)c4)c3c2)o1 [Lapatinib] (partner 2 µM)
Procedure, shortened: as §1

[3] = compound: CN[C@@H]1C[C@H]2O[C@@](C)([C@@H]1OC)n1c3ccccc3c3c4c(c5c6ccccc6n2c5c31)C(=O)NC4 [Staurosporine] + CCNC(=O)c1noc(-c2cc(C(C)C)c(O)cc2O)c1-c1ccc(CN2CCOCC2)cc1 [Luminespib] (partner 0.01 µM)
Procedure, shortened: as §1

Row | Cell Line | relative viability (Sulindac + Phenformin; first compound 0.08 µM) | relative viability (Sulindac + Phenformin; first compound 0.253 µM) | relative viability (Sulindac + Phenformin; first compound 0.8 µM) | relative viability (Sulindac + Phenformin; first compound 2.53 µM) | relative viability (Sulindac + Phenformin; first compound 8 µM) | relative viability ([1]; first compound 0.005 µM) | relative viability ([1]; first compound 0.05 µM) | relative viability ([1]; first compound 0.1581 µM) | relative viability ([1]; first compound 0.5 µM) | relative viability ([2]; first compound 0.02 µM) | relative viability ([2]; first compound 0.2 µM) | relative viability ([2]; first compound 0.6325 µM) | relative viability ([2]; first compound 2 µM) | relative viability ([3]; first compound 0.005 µM) | relative viability ([3]; first compound 0.01581 µM) | relative viability ([3]; first compound 0.05 µM) | relative viability ([3]; first compound 0.1581 µM) | relative viability ([3]; first compound 0.5 µM) | relative viability ([1]; first compound 0.01581 µM)
1 | HCC-366 | 0.651 | 0.679 | 0.587 | 0.61 | 0.703 | 0.972 | 0.171 | 0.0224 | 0.0156 | 0.996 | 0.945 | 0.523 | 0.0471 |  |  |  |  |  | 
2 | HCC-827 | 0.395 | 0.367 | 0.414 | 0.413 | 0.426 | 0.927 | 0.583 | 0.575 | 0.442 | 0.159 | 0.203 | 0.191 | 0.187 | 0.997 | 0.532 | 0.13 | 0.139 | 0.121 | 0.803
3 | HOP-62 | 0.785 | 0.937 |  | 0.746 | 0.759 | 1.02 | 0.134 | 0.144 | 0.0781 | 0.797 | 1.03 | 0.986 | 0.956 | 0.949 | 0.426 | 0.189 | 0.134 | 0.109 | 0.741
4 | IA-LM |  |  |  |  |  | 0.253 | 0.319 | 0.148 | 0.0488 | 0.812 | 0.461 | 0.293 | 0.352 |  |  |  |  |  | 0.073
5 | LC-2-ad | 0.513 | 0.61 | 0.427 | 0.516 | 0.697 | 0.442 | 0.266 | 0.167 | 0.116 | 1.05 | 0.975 | 0.255 | 0.264 | 0.976 | 0.41 | 0.341 | 0.219 | 0.185 | 0.368
6 | LCLC-97TM1 | 0.497 | 0.518 | 0.447 | 0.441 | 0.486 | 0.277 | 0.234 | 0.296 | 0.257 | 0.693 | 0.857 | 0.617 | 0.272 | 0.829 | 0.416 | 0.338 | 0.268 | 0.221 | 0.24
7 | LCLC-103H | 0.361 | 0.318 | 0.286 | 0.315 | 0.323 | 1.1 | 0.564 | 0.318 | 0.258 |  |  |  |  | 0.8 | 0.369 | 0.157 | 0.18 | 0.177 | 0.741
8 | LK-2 | 0.412 | 0.421 |  |  | 0.529 | 0.18 | 0.129 | 0.0689 | 0.0939 | 1.17 | 1.08 | 0.697 | 0.535 | 0.202 |  | 0.187 | 0.153 | 0.172 | 0.16
9 | LOU-NH91 | 0.708 | 0.68 | 0.681 | 0.717 | 0.853 | 0.721 | 0.493 | 0.413 | 0.325 | 0.777 | 0.83 | 0.497 | 0.406 | 0.355 | 0.279 | 0.209 | 0.289 | 0.212 | 0.594
10 | LU99A | 0.86 | 0.853 | 0.83 | 0.827 | 1.11 | 0.391 | 0.253 | 0.157 | 0.118 | 1.03 | 1.03 | 0.77 | 0.551 | 0.21 | 0.176 | 0.134 | 0.137 | 0.123 | 0.308
